Reference: BindingDB's records for doi:10.7270/Q2T43RJV (Nmmlsc, 2010)

Biological target: Guanine nucleotide-binding protein G(o) subunit alpha (Homo sapiens, UniProt P09471)
Assay: modulators of RGS4 binding to Galphao – biochemical, multiplexed bead assay, additional SAR round, SAR follow-up (AID 2829)

Sequence of Guanine nucleotide-binding protein G(o) subunit alpha (P09471 whole entry): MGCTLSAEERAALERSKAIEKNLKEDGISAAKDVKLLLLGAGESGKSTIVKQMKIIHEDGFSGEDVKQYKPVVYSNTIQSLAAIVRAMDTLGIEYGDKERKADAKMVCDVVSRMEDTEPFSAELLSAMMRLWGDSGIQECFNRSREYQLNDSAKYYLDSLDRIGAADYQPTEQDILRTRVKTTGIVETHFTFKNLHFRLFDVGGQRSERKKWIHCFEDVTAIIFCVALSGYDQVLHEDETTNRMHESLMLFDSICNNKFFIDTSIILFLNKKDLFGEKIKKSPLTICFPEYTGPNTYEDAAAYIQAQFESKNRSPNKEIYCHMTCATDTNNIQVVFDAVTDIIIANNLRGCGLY

Row | EC50 [µM] | SMILES
1 | > 30 | O=C(c1sc2cc([N+](=O)[O-])ccc2c1Cl)N1CCNCC1
2 | > 30 | O=C(NCCCN1CCOCC1)c1sc2cc([N+](=O)[O-])ccc2c1Cl [3-chloranyl-N-(3-morpholin-4-ylpropyl)-6-nitro-1-benzothiophene-2-carboxamide]
3 | > 30 | O=C(NCCCn1ccnc1)c1sc2cc([N+](=O)[O-])ccc2c1Cl [3-chloro-N-[3-(1-imidazolyl)propyl]-6-nitro-1-benzothiophene-2-carboxamide]
4 | > 30 | NC(=O)c1sc2cc([N+](=O)[O-])ccc2c1Cl [KSC-1-100]
5 | > 30 | Cc1ccc2c(Cl)c(C(=O)NCCCN3CCOCC3)sc2c1 [KUC103874N]
